{"source": "patent US20060014642A1", "about": "“Herbicidal compositions” (Bayer CropScience GmbH, priority 2004, published 2006)", "format_in_all_cases": "in vivo", "key": {"[1]": {"test_system": "Poa trivialis", "assay": "Outdoor trial, post-emergence herbicidal action against Poa trivialis", "experimental": "(§1) The herbicidal efficacy of the active compounds or active compound mixtures was scored visually by comparing the treated pots (soil) with untreated controls. The damage and development of all above-ground plant parts was recorded. Scoring was done on a percentage scale (100% action=all plants dead or not emerged; 50% action=50% of the plants and green plant parts dead or not emerged; 0% action=no discernible action=like control plot). The score figures of in any case 4 repetitions (pots) were averaged.\n(§2) Seeds or rhizome pieces of monocotyledonous and dicotyledonous weeds are placed in sandy loam in pots, covered with soil and grown in the greenhouse under good growth conditions (temperature, atmospheric humidity, water supply). Three weeks after sowing, the test plants are treated in the three-leaf stage with the compositions according to the invention. The compositions according to the invention, formulated as wettable powders or emulsion concentrates, are sprayed onto the green plant parts in various dosages using an application rate of 300 to 800 l of water/ha (converted). After the test plants have remained in the greenhouse under optimum growth conditions for about 3 to 4 weeks, the effect of the preparations is scored visually in comparison with untreated controls (scoring as in Example 1). […]"}, "[2]": {"test_system": "Festuca rubra", "assay": "Outdoor trial, post-emergence herbicidal action against Festuca rubra", "experimental": "as §1, §2"}, "[3]": {"test_system": "Lolium multiflorum", "assay": "Outdoor trial, post-emergence herbicidal action against Lolium multiflorum", "conditions": "application at the 2-5-leaf stage (post-emergence), evaluation 55 days after treatment", "experimental": "as §1\nSeeds or rhizome pieces of monocotyledonous and dicotyledonous weeds are placed in sandy loam in pots, covered with soil and grown in the greenhouse under good growth conditions (temperature, atmospheric humidity, water supply). Three weeks after sowing, the test plants are treated in the three-leaf stage with the compositions according to the invention. The compositions according to the invention, formulated as wettable powders or emulsion concentrates, are sprayed onto the green plant parts in various dosages using an application rate of 300 to 800 l of water/ha (converted). After the test plants have remained in the greenhouse under optimum growth conditions for about 3 to 4 weeks, the effect of the preparations is scored visually in comparison with untreated controls (scoring as in Example 1). The compositions according to the invention also have good herbicidal post-emergence action against a broad spectrum of economically important weed grasses and broad-leaf weeds.\nCorresponding to the greenhouse experiments of sections 1 and 2, the tests were carried out in the open on plots. Scoring was carried out analogously to the tests in sections 1 and 2.\nCertain combinations were tested for their herbicidal activity in accordance to the general example in section 3 in combination with section 2 (post-emergence method)."}, "[4]": {"conditions": "600 g of AS/ha, application at stage 21, evaluation 35 days after treatment"}, "[5]": {"conditions": "200 g of AS/ha, application at stage 21 of the harmful plants, evaluation 35 days after treatment"}}, "data": [{"molecule": "CP(=O)(O)CCC(N)C(=O)O", "note": "(racemic) [(B2.1.1.1), 4-[hydroxy(methyl)phosphinoyl]-DL-homoalanine, reference compound]", "values": [{"measurement": "Herbicidal action [%] against Poa trivialis", "setting": "[1]; [4]", "result": 88, "unit": "%"}, {"measurement": "Herbicidal action [%] against Festuca rubra", "setting": "[2]; [4]", "result": 87, "unit": "%"}]}, {"molecule": "Cc1ccc2c(c1)[C@H](Nc1nc(N)nc([C@@H](C)F)n1)CC2", "note": "[(A11), 2-amino-4-[(1R)-6-methylindan-1-ylamino]-6-[(1R)-1-fluoroethyl]-1,3,5-triazine]", "values": [{"measurement": "Herbicidal action [%] against Poa trivialis", "setting": "[1]; [5]", "result": 0, "unit": "%"}, {"measurement": "Herbicidal action [%] against Festuca rubra", "setting": "[2]; [5]", "result": 0, "unit": "%"}, {"measurement": "Herbicidal action [%] against Lolium multiflorum", "setting": "[3]; 200 g of AS/ha", "result": 20, "unit": "%"}, {"measurement": "Herbicidal action [%] against Lolium multiflorum", "setting": "[3]; 300 g of AS/ha", "result": 50, "unit": "%"}]}, {"molecule": "O=C(O)CNCP(=O)(O)O", "note": "[(B2.1.2.1), N-(phosphonomethyl)glycine, reference compound]", "values": [{"measurement": "Herbicidal action [%] against Lolium multiflorum", "setting": "[3]; 1080 g of AS/ha", "result": 18, "unit": "%"}]}]}
